The record followed here is patent US20200375929A1, “METHODS AND COMPOSITIONS FOR THE TREATMENT OF DISEASES ASSOCIATED WITH CANCER, INFLAMMATION, OR IMMUNE RESPONSE” (Washington University, priority 2017, published 2020).

One data set deals with NFkB pathway. The experiment in a line: Canonical NFkB signaling in LPS-stimulated BMDMs (p65 translocation, IKK, IkBa). Format: cell-based, mouse. As for the experimental part:
BMDM were prepared from 6- to 12-week-old mice as described 1 and cultured in RMPI-1640 medium supplemented with 10% fetal bovine serum (FBS), 2 mM L-glutamine, and 100 U/mL penicillin-streptomycin and mouse recombinant M-CSF ([…], Peprotech). For experiments, cells were seeded at concentration 10^6 cells/mL in tissue culture plates of various formats. The cells were treated with DI (250 μM (unless stated otherwise), cat #592498, Sigma), DMF (50 μM (unless stated otherwise), cat #242926, Sigma), 3-(ethoxycarbonyl)but-3-enoic acid (3MI, 5 μM, Aris Pharmaceuticals Inc.), 4-ethoxy-2-methylene-4-oxobutanoic acid (MI, Aris Pharmaceuticals Inc.) for 12 h and activated with lipopolysaccharide (LPS; 100 ng/mL; E. coli 0111:B4, Sigma) for 1 h or as indicated. In some experiments cells were stimulated with combination of LPS (20 ng/mL) and IFN-γ (50 ng/mL; Peprotech). In some experiments cells were treated with α-tocopherol (AT, 10 μM; Sigma), MitoTEMPO (MT, 500 μM; Sigma), N-acetylcysteine (NAC, 1 mM, Sigma), ethylester of GSH (EtGSH; 1 mM, Santa Cruz) or buthionene sulfoximine (BSO, 500 μM, Sigma) alone or in combination with DI for 12 h. […]
Cells were lysed in RIPA Lysis Buffer System (Santa Cruz) and heat-denatured at 95° C. for 5 min in reducing sample buffer (BioRad). […] Non-specific binding was blocked with 5% skim milk (or 5% BSA when phospho-proteins were analyzed), and membranes were probed with primary antibodies specific to Nrf2 (#12721), HO-1 (#70081), IκBζ (mouse specific, #93726), IκBζ(#9244), ATF3 (#D2Y5W), IRAK1 (#4504; sensitivity of IRAK1 detection diminishes upon IRAK1 K63 ubiquitination), phospho-IKK (Ser176/180, #2697), p62/SQSTM1 (#5114), phospho-eIF2α (Ser51, #9721), eIF2α (#5324) from Cell Signaling; GAPDH (sc-25778), IκBα (sc-1643), ATF3 (sc-188), SDHA (sc-166909) from Santa Cruz; NQO1 (ab28947) from Abeam, followed by incubation with anti-rabbit-HRP (1:10,000; sc-2030) or anti-mouse-HRP (1:10,000; sc-2031) from Santa Cruz and Clarity western ECL substrate (Bio-Rad). […]

Another data set relates to Nfkbiz 3′UTR. The experiment in a line: Nfkbiz 3′UTR GFP reporter in BV2 cells (flow cytometry). Format: cell-based, mouse. As to conditions: DI 250 μM 12 h, LPS 1 h. As for the experimental part:
Mouse Nfkbiz 3′UTR Lenti-reporter-GFP (#MT-m64048) vector or pLenti-UTR-GFR-Blank vector (#m014) were purchased from Applied Biological Materials. For lentiviral production transfection mixture of 1.5-mL of Opti-MEM medium (Invitrogen), 18 μg of psPAX2 (gift from Didier Trono, Addgene plasmid #12260), 13 μg of pCMV-V-SVG (gift from Bob Weinberg, Addgene plasmid #8454), 20 μg of lentiviral construct, and 105 μL of polyethylenimine (1 mg/mL; 25 kDa; linear form; Polysciences). The mixture was incubated at room temperature for 20 min and added to HEK-293T cells (ATCC) cultured in DMEM supplemented with 10% FBS, 2 mM L-glutamine and 100 U/mL penicillin-streptomycin in 150-cm2 tissue culture flask. 48 h later, virus-containing medium was filtered through […] pore-size cellulose acetate filters and used directly for BV2 transduction in the presence of polybrene (8 μg/mL, Millipore). […]
For ROS measurements, cells were treated with DI (250 μM), loaded with 10 μM CM-H2DCFDA (Invitrogen) at RT for 30 min in Hank's balanced salt solution (HBSS). After incubation, cell were rinsed with warm HBSS, harvested and directly analyzed. […] For Nfkbiz 3′UTR reporter analysis GFP signal was determined in live cells. […] Cells were acquired on CantoII or LSRII flow cytometers (Becton Dickinson), and data were analyzed with FlowJo v.9.5.2 software (Tree Star). […]
(In general: In flow cytometry, cells or beads pass a laser one at a time.)

The test system of data set [1] is human primary keratinocytes. The experiment in a line: Viability of primary keratinocytes (propidium iodide, flow cytometry). As to conditions: DI 12 h. Format: cell-based. As for the experimental part:
For ROS measurements, cells were treated with DI (250 μM), loaded with 10 μM CM-H2DCFDA (Invitrogen) at RT for 30 min in Hank's balanced salt solution (HBSS). After incubation, cell were rinsed with warm HBSS, harvested and directly analyzed. Mean fluorescent intensity (MFI) of living cells is shown. For Nfkbiz 3′UTR reporter analysis GFP signal was determined in live cells. For analysis of cell viability cells were stained with propidium iodide (1 μg/mL) and percentage of negative cells was plotted. Cells were acquired on CantoII or LSRII flow cytometers (Becton Dickinson), and data were analyzed with FlowJo v.9.5.2 software (Tree Star). For gating strategy see e.g., FIG. 25.
Primary keratinocytes were isolated from C57BL/6 WT newborn mice or human foreskins as previously described. 2×10^5 cells in 1 ml of KFSM media (Gibco cat #10725-018) [Ca2+ at 0.05 mM (mouse) and 0.09 mM (human)] were plated in 12-well tissue culture plates. After 2-3 days of cultivation, mouse or human cells were treated with DI for 12 hours and then stimulated with mouse recombinant IL-17A (100 ng/mL; cat #421-ML, R&D Systems) or human recombinant IL-17A (100 ng/mL; cat #7955-IL, R&D Systems) for 4 h or as indicated.

“Also recorded” adds a separate entry of the source.

In the case of `C=C(CC(=O)OC)C(=O)OC` [DI, dimethyl itaconate], the “p65 nuclear translocation upon LPS” value in the data set on NFkB pathway (BMDMs, DI 250 μM 12 h, LPS) was “does not inhibit nuclear translocation of p65; also recorded: nor did it prevent LPS-mediated p65 nuclear translocation”. Moreover, the “IκBα degradation in response to LPS” value in the data set with NFkB pathway (BMDMs, DI, LPS) is “did not inhibit IκBα degradation”. For the same compound, the “canonical NFkB response” value in the data set on NFkB pathway (DI at concentrations effective to inhibit IL6, p65 translocation, IKK activation, IkBa degradation) is given as “not affected”. Further, in the data set with Nfkbiz 3′UTR, the “Nfkbiz 3′UTR reporter GFP expression” value is on record as “did not affect expression of reporter gene GFP; also recorded: not due to regulation of Nfkbiz 3′UTR”. The “viability of primary keratinocytes” value in data set [1] is “not affected”.
